# Where a name gives a salt, the structure may show the parent alone.
# Biological target: Btk enzyme (His-Btk) (Homo sapiens (Human), UniProt Q06187)
# Assay: Btk enzyme activity, IMAP fluorescence polarization assay (Assay Method A)
# Details: not given
# Btk enzyme (His-Btk), sequence (Q06187 whole entry): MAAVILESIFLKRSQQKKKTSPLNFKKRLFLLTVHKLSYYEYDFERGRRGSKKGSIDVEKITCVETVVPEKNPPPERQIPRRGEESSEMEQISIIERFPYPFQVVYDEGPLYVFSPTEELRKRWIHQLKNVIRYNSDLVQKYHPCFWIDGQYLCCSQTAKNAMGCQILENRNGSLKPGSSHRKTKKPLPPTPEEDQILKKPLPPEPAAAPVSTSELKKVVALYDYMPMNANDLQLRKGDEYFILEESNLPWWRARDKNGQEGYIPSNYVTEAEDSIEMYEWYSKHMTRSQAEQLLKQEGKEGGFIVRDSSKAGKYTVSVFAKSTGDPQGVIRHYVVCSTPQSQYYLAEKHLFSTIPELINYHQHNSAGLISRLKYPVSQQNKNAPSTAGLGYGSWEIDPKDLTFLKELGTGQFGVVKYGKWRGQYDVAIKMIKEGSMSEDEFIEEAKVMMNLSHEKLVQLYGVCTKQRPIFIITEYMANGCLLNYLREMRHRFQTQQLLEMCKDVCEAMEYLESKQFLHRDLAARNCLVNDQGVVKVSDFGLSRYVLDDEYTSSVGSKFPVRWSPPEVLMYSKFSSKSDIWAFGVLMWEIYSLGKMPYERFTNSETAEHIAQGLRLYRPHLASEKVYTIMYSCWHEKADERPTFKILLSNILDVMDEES
row,SMILES,EC50
1,"COCCOCCOCCOCCOCCOCCOCCOCCC(=O)N1CCC[C@@H](c2nc(-c3ccc(C(=O)Nc4cc(C(F)(F)F)ccn4)cc3)c3c(N)nccn23)C1 [Example 80, (R)-4-(3-(1-2,5,8,11,14,17,20,23-octaoxahexacosanepiperidin-3-yl)-8-aminoimidazo[1,5-a]pyrazin-1-yl)-N-(4-(trifluoromethyl)pyridin-2-yl)benzamide]",< 10 nM
2,"CC1CC1C(=O)N1CCC[C@@H](c2nc(-c3ccc(C(=O)Nc4cc(C5CC5)ccn4)cc3)c3c(N)nccn23)C1 (stereo partly drawn) [Example 62, 4-(8-amino-3-((3R)-1-(2-methylcyclopropanecarbonyl)piperidin-3-yl)imidazo[1,5-a]pyrazin-1-yl)-N-(4-cyclopropylpyridin-2-yl)benzamide]",< 10 nM
3,"CCOC(=O)N1CCCC(c2cc(-c3ccc(C(=O)Nc4cc(C(F)(F)F)ccn4)cc3)c3c(N)ncnn23)C1 (stereo not shown) [Example 251, ethyl 3-(4-amino-5-(4-(4-(trifluoromethyl)pyridin-2-ylcarbamoyl)phenyl)pyrrolo[1,2-f][1,2,4]triazin-7-yl)piperidine-1-carboxylate]",< 10 nM
4,"CO[C@@H](C)C(=O)N1CCC[C@@H](c2nc(-c3ccc(C(=O)Nc4ccccn4)cc3)c3c(N)nccn23)C1 [Example 57, 4-(8-amino-3-((R)-1-((S)-2-methoxypropanoyl)piperidin-3-yl)imidazo[1,5-a]pyrazin-1-yl)-N-(pyridin-2-yl)benzamide]",10 to 100 nM
5,"Nc1nccn2c1c(-c1ccc(C(=O)Nc3cc(N4CCCC4)ccn3)cc1)nc2[C@H]1CC[C@H](O)CC1 [Example 21, 4-(8-amino-3-((trans)-4-hydroxycyclohexyl)imidazo[1,5-a]pyrazin-1-yl)-N-(4-(pyrrolidin-1-yl)pyridin-2-yl)benzamide]",10 to 100 nM
6,"Nc1nccn2c(C3CC34CCN(C(=O)CO)CC4)nc(-c3ccc(C(=O)Nc4ccccn4)cc3)c12 (stereo not shown) [Example 152, 4-(8-amino-3-(6-(2-hydroxyacetyl)-6-azaspiro[2.5]octan-1-yl)imidazo[1,5-a]pyrazin-1-yl)-N-(pyridin-2-yl)benzamide]",100 to 1000 nM
7,"CCN(CC)c1nc(-c2ccc(C(=O)Nc3cc(C#N)ccn3)cc2)c2c(N)nccn12 [Example 215, 4-(8-amino-3-(diethylamino)imidazo[1,5-a]pyrazin-1-yl)-N-(4-cyanopyridin-2-yl)benzamide]",10 to 100 nM
8,"CC1(C(=O)N2CCC[C@@H](c3nc(-c4ccc(C(=O)Nc5cc(C#N)ccn5)cc4)c4c(N)nccn34)C2)COC1 [Example 99, (R)-4-(8-amino-3-(1-(3-methyloxetane-3 carbonyl)piperidin-3-yl)imidazo[1,5-a]pyrazin-1-yl)-N-(4-cyanopyridin-2-yl)benzamide]",< 10 nM
9,"Nc1nccn2c([C@@H]3CCCN(C(=O)[C@H]4CC[C@H](N)CC4)C3)nc(-c3ccc(C(=O)Nc4ccccn4)cc3)c12 [Example 55, 4-(8-amino-3-((R)-1-((trans)-4-aminocyclohexanecarbonyl)piperidin-3-yl)imidazo[1,5-a]pyrazin-1-yl)-N-(pyridin-2-yl)benzamide, TFA salt]",10 to 100 nM
10,"COCCC(=O)N1CCC[C@@H](c2nc(-c3ccc(C(=O)Nc4cc(C5CC5)ccn4)cc3)c3c(N)nccn23)C1 [Example 61, (R)-4-(8-amino-3-(1-(3-methoxypropanoyl)piperidin-3 yl)imidazo[1,5-a]pyrazin-1-yl)-N-(4-cyclopropylpyridin-2-yl)benzamide]",< 10 nM
11,"Nc1nccn2c(C3CCOCC3)nc(-c3ccc(C(=O)Nc4nccs4)cc3)c12 [Example 29, 4-(8-amino-3-(tetrahydro-2H-pyran-4-yl)imidazo[1,5-a]pyrazin-1-yl)-N-(thiazol-2-yl)benzamide]",100 to 1000 nM
12,"CC(CNC(=O)OCc1ccccc1)c1nc(-c2ccc(C(=O)Nc3cc(C(F)(F)F)ccn3)cc2)c2c(N)nccn12 (stereo not shown) [Example 132, benzyl 2-(8-amino-1-(4-(4-(trifluoromethyl)pyridin-2-ylcarbamoyl)phenyl)imidazo[1,5-a]pyrazin-3-yl)propylcarbamate]",10 to 100 nM

# Results, then the compound that gave them:
row,EC50,SMILES
1,10 to 100 nM,"Cc1nc(-c2ccc(C(=O)Nc3cc(C(F)(F)F)ccn3)cc2)c2c(N)ncc(C(O)CC(C)C)n12 (stereo not shown) [Example 323, 4-(8-amino-5-(1-hydroxy-3-methylbutyl)-3-methylimidazo[1,5-a]pyrazin-1-yl)-N-(4-(trifluoromethyl)pyridin-2-yl)benzamide]"
2,10 to 100 nM,"Nc1nccn2c(N3CCC3)nc(-c3ccc(C(=O)Nc4cc(C(F)(F)F)ccn4)cc3)c12 [Example 210, 4-(8-amino-3-(azetidin-1-yl)imidazo[1,5-a]pyrazin-1-yl)-N-(4-(trifluoromethyl)pyridin-2-yl)benzamide]"

# Same assay, conditions: read-out: EC50 Btk activity values - Assay Method A; IMAP-FP, 60 min pre-incubation, 5 μM ATP; class 100-1000 is given as ≧100 nM-<1 μM
row,SMILES,EC50
1,"COCCC(=O)N1CCC[C@@H](c2nc(-c3ccc(C(=O)Nc4cc(C(F)(F)F)ccn4)cc3)c3c(N)ncc(/C=C/c4ccccc4)n23)C1 [Example 310, (R,E)-4-(8-amino-3-(1-(3-methoxypropanoyl)piperidin-3-yl)-5-styrylimidazo[1,5-a]pyrazin-1-yl)-N-(4-(trifluoromethyl)pyridin-2-yl)benzamide]",< 10 nM
2,"Nc1nccn2c(N3CCC[C@H](NC(=O)C4CCC4)C3)nc(-c3ccc(C(=O)Nc4cc(C(F)(F)F)ccn4)cc3)c12 [Example 223, (S)-4-(8-amino-3-(3-(cyclobutanecarboxamido)piperidin-1-yl)imidazo[1,5-a]pyrazin-1-yl)-N-(4-(trifluoromethyl)pyridin-2-yl)benzamide]",< 10 nM
3,"CCC(=O)N1CCC[C@@H](n2nc(-c3ccc(C(=O)Nc4cc(C(F)(F)F)ccn4)cc3)c3c(N)ncnc32)C1 [Example 271, (R)-4-(4-amino-1-(1-propionylpiperidin-3-yl)-1H-pyrazolo[3,4-d]pyrimidin-3-yl)-N-(4-(trifluoromethyl)pyridin-2-yl)benzamide]",< 10 nM
4,"CONC(=O)C1CCCN(c2nc(-c3ccc(C(=O)Nc4cc(C(F)(F)F)ccn4)cc3)c3c(N)nccn23)C1 (stereo not shown) [Example 242, 1-(8-amino-1-(4-(4-(trifluoromethyl)pyridin-2-ylcarbamoyl)phenyl)imidazo[1,5-a]pyrazin-3-yl)-N-methoxypiperidine-3-carboxamide, TFA salt]",< 10 nM
5,"CC1(C(=O)N2CCC[C@@H](c3nc(-c4ccc(C(=O)Nc5cc(C(F)(F)F)ccn5)cc4)c4c(N)ncc(/C=C/c5ccc(F)cc5)n34)C2)COC1 [Example 318, (R,E)-4-(8-amino-5-(4-fluorostyryl)-3-(1-(3-methyloxetane-3-carbonyl)piperidin-3-yl)imidazo[1,5-a]pyrazin-1-yl)-N-(4-(trifluoromethyl)pyridin-2-yl)benzamide]",< 10 nM
6,"CCC(=O)N[C@@H]1CCC[C@@H](c2nc(-c3ccc(C(=O)Nc4cc(C(F)(F)F)ccn4)cc3)c3c(N)nccn23)C1 (relative stereo) [Example 170, 4-(8-amino-3-((trans)-3-propionamidocyclohexyl)imidazo [1,5-a]pyrazin-1-yl)-N-(4-(trifluoromethyl)pyridin-2-yl)benzamide]",< 10 nM
7,"CCN(CC)C(=O)C1CCCN(c2nc(-c3ccc(C(=O)Nc4cc(C5CC5)ccn4)cc3)c3c(N)nccn23)C1 (stereo not shown) [Example 246, 1-(8-amino-1-(4-(4-cyclopropylpyridin-2-ylcarbamoyl)phenyl)imidazo[1,5-a]pyrazin-3-yl)-N,N-diethylpiperidine-3-carboxamide, TFA salt]",< 10 nM
8,"CC1(C(=O)N2CCC[C@@H](c3nc(-c4ccc(C(=O)Nc5cc(C(F)(F)F)ccn5)cc4)c4c(N)ncc(/C=C/c5ccccc5)n34)C2)COC1 [Example 309, (R,E)-4-(8-amino-3-(1-(3-methyloxetane-3-carbonyl)piperidin-3-yl)-5-styrylimidazo[1,5-a]pyrazin-1-yl)-N-(4-(trifluoromethyl)pyridin-2-yl)benzamide]",< 10 nM

# Results, then the compound that gave them:
row,EC50,SMILES
1,< 10 nM,"CCC(=O)NCC(C)c1nc(-c2ccc(C(=O)Nc3cc(C(F)(F)F)ccn3)cc2)c2c(N)nccn12 (stereo not shown) [Example 130, 4-(8-amino-3-(1-propionamidopropan-2-yl)imidazo[1,5-a]pyrazin-1-yl)-N-(4-(trifluoromethyl)pyridin-2-yl)benzamide]"
2,< 10 nM,"CCc1cnc(N)c2c(-c3ccc(C(=O)Nc4cc(C(F)(F)F)ccn4)cc3)nc([C@@H]3CCCN(C(=O)C4(C)COC4)C3)n12 [Example 308, (R)-4-(8-amino-5-ethyl-3-(1-(3-methyloxetane-3-carbonyl)piperidin-3-yl)imidazo[1,5-a]pyrazin-1-yl)-N-(4-(trifluoromethyl)pyridin-2-yl)benzamide]"
3,< 10 nM,"CC(C)C(=O)N[C@H]1CCC[C@@H](c2nc(-c3ccc(C(=O)Nc4cc(C(F)(F)F)ccn4)cc3)c3c(N)nccn23)C1 (relative stereo) [Example 159, 4-(8-amino-3-((cis)-3-isobutyramidocyclohexyl)imidazo [1,5-a]pyrazin-1-yl)-N-(4-(trifluoromethyl)pyridin-2-yl)benzamide]"
4,< 10 nM,"Nc1nccn2c(C3CCOCC3)nc(-c3ccc(C(=O)Nc4cc(C(F)(F)F)ccn4)cc3)c12 [Example 25, 4-(8-amino-3-(tetrahydro-2H-pyran-4-yl)imidazo[1,5-a]pyrazin-1-yl)-N-(4-(trifluoromethyl)pyridin-2-yl)benzamide]"
5,< 10 nM,"Nc1ncc(Cl)n2c(C3CN(C(=O)C4(O)CCC4)CCO3)nc(-c3ccc(C(=O)Nc4cc(C(F)(F)F)ccn4)cc3)c12 (stereo not shown) [Example 316, 4-(8-amino-5-chloro-3-(4-(1-hydroxycyclobutanecarbonyl)morpholin-2-yl)imidazo[1,5-a]pyrazin-1-yl)-N-(4-(trifluoromethyl)pyridin-2-yl)benzamide]"
6,< 10 nM,"CCNC(=O)N1CCC[C@@H](c2nc(-c3ccc(C(=O)Nc4cc(C(F)(F)F)ccn4)cc3)c3c(N)ncnn23)C1 [Example 256, (R)-3-(4-amino-5-(4-(4-(trifluoromethyl)pyridin-2-ylcarbamoyl)phenyl)imidazo[1,5-f][1,2,4]triazin-7-yl)-N-ethylpiperidine-1-carboxamide]"

# Reference: patent US9718828B2 (MERCK SHARP & DOHME CORP., priority 2011, dated 2017)
